Reference: patent US9862684B2, “Modulation of K2P channels” (The Regents of the University of California, priority 2013, dated 2018)
Values joined by “and” are separate entries in the source; they are usually repeats but may differ in a detail not shown here. Equal entries are not always repeated.

Columns and labels:
[1] = target: T1, K2P2.1 (TREK-1) G137I (Mus musculus, UniProt P97438, G152I); test: Two-electrode voltage clamp, Xenopus oocytes, C-type gate mutant G137I; type: cell-based, Murine
T1 construct: expressed in transfected cells; host or cells: Xenopus oocytes
T1 sequence (P97438 1-411 isoform P97438-2 G137I): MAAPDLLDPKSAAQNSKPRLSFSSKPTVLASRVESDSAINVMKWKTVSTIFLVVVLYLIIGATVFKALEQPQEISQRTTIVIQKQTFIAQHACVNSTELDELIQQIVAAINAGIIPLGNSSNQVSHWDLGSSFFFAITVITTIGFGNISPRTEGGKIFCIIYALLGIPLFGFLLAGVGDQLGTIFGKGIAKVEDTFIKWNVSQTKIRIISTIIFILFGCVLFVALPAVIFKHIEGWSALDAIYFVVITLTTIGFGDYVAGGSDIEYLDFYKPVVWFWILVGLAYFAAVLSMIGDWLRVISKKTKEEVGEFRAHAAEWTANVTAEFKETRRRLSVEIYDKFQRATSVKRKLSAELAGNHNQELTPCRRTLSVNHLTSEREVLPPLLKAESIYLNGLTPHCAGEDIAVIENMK
Procedure: I-V curves were measured by two-electrode voltage clamp of Xenopus oocytes in b, 90 mM [K^+]o. or c-e, 2 mM [K^+]o. […] Data (were measured at 20 mV (90 mM [K^+]o) or 0 mV (2 mM [K^+]o), normalized to basal channel activity, and fitted to the Hill equation. Error bars indicate s.e., n≧6, N≧2.
(§1) Murine K2P channels were cloned into pGEMHE/pMO {Bagriantsev, 2011}, IRES-GFP (Invitrogen), or pYES2-MET25 (high copy 2μ, URA3) {Minor, 1999} for expression in oocytes, HEK-293T cells, and yeast, respectively, using standard molecular biology procedures, and verified by DNA sequencing.
Two-electrode voltage clamp recordings were performed from defolliculated stage V-VI Xenopus oocytes 24-48 hours after injection with 0.015-6.0 ng cRNA, using microelectrodes (0.3-3.0 MΩ) filled with 3M KCl. Data was acquired using the GeneClamp 500B (MDS Analytical Technologies) amplifier controlled by the pClamp software (Molecular Devices), and digitized at 1 kHz using Digidata 1332A (MDS Analytical Technologies). Recording solutions (mM): 2K (96 NaCl, 2 KCl, 1.8 CaCl2, 2 MgCl2), 90K (90 KCl, 8 NaCl, 1.8 CaCl2, 2 MgCl2), were buffered 5 mM HEPES pH 7.4. For K2P recordings, currents we elicited by a 1 second long ramp from −150 to +50 mV from a holding potential of −80 mV (2K), or −100 to +50 mV from a holding potential of 0 mV (90K). […]

[2] = target: T2, K2P3.1 (TASK-1) (Mus musculus, UniProt O35111); test: Two-electrode voltage clamp, Xenopus oocytes expressing K2P3.1 (TASK-1); type: cell-based, Murine
T2 construct: expressed in transfected cells; host or cells: Xenopus oocytes
Procedure: FIG. 7 ML67-33 is a selective activator of heat- and mechanosensitive K2P channels. a-f, Exemplar I-V curves showing the effect of ML67-33 on a, K2P10.1 (TREK-2), b, K2P4.1 (TRAAK), c, K2P3.1 (TASK-1), d, K2P9.1 (TASK-3), e, K2P5.1 (TASK-2), and f, K2P18.1 (TRESK) measured in Xenopus oocytes in 2 mM [K^+]o pH 7.4. Currents were elicited by a voltage ramp from −150 to 50 mV, from a holding potential of −80 mV. g, Quantification of the effect of ML67-33 on the indicated channels. Data (mean±s.e., n≧6, N≧2) was normalized to basal channel activity and fitted to the Hill equation. […] Error bars indicate s.e., n≧6, N≧2.
as §1
Two-electrode voltage clamp recordings were performed from defolliculated stage V-VI Xenopus oocytes 24-48 hours after injection with 0.015-6.0 ng cRNA, using microelectrodes (0.3-3.0 MΩ) filled with 3M KCl. Data was acquired using the GeneClamp 500B (MDS Analytical Technologies) amplifier controlled by the pClamp software (Molecular Devices), and digitized at 1 kHz using Digidata 1332A (MDS Analytical Technologies). Recording solutions (mM): 2K (96 NaCl, 2 KCl, 1.8 CaCl2, 2 MgCl2), 90K (90 KCl, 8 NaCl, 1.8 CaCl2, 2 MgCl2), were buffered 5 mM HEPES pH 7.4. For K2P recordings, currents we elicited by a 1 second long ramp from −150 to +50 mV from a holding potential of −80 mV (2K), or −100 to +50 mV from a holding potential of 0 mV (90K). For KCNQ2 recordings, currents were elicited by a step protocol from −120 to 60 mV, in 20 mV increments, from a holding potential of −80 mV. Patch-clamp recordings from HEK-293T cells were performed using microelectrodes (2-3 MΩ) filled with 1M KCl. Data was acquired using the Axopatch 200B amplifier controlled by pClamp software, and digitized at 1 kHz using Digidata 1332A. Recording solutions (mM): intracellular (145 KCl, 5 EGTA, 3 MgCl2,) extracellular (150 NaCl, 5 KCl, 3 MgCl2, 1 CaCl2) were buffered with 5 mM HEPES pH 7.2 and 7.4, respectively. Currents were elicited by a 1 second long ramp from −150 to +50 mV from a holding potential of −80 mV. Data were fitted with a modified Hill's equation: I=Imin+(Imax−Imin)/(1+10^((Log EC50−Log [C])*H)), where Imax and Imin are maximal and minimal current values, respectively, EC50 is a half-maximal effective concentration of the compound, and H is the Hill coefficient.
There are six K2P subgroups {Noel, 2011} (FIG. 11). […]

T2 sequence (O35111 whole entry): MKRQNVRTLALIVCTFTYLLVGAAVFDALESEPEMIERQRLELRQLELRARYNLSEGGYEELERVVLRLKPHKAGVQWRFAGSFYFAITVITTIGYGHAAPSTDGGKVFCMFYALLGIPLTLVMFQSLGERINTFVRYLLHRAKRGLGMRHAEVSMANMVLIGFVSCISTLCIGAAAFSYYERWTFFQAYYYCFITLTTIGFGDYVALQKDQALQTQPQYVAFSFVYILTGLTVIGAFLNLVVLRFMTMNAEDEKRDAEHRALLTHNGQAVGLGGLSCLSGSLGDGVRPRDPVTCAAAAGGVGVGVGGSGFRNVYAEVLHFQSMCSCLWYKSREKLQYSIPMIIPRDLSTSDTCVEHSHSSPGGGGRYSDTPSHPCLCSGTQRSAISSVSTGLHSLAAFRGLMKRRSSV

**Q.** Which results are given for CC1(C)c2cc(Cl)ccc2N(CCc2nnn[nH]2)c2ccc(Cl)cc21 [ML67-33, 2,7-dichloro-9,9-dimethyl-10-[2-(1H-tetrazol-5-yl)ethyl]acridine]?
**A.** response to ML67-33 activation (in words) [1]: completely resistant; Emax (fold) at 150 μM ([1]; at 150 μM): 0.9 ± 0.1 at 150 μM fold; functional effect / activation (in words) ([2]; ML67-33 applied at 100 μM, ML67 concentration not stated): little or no functional effects; Emax (fold) ([2]; at 100 μM (FIG. 7 legend), ** in Table 1): 1.1±0.0 fold and 1.1 ± 0.1** fold
